Measurements: US12384771B2, “Pleuromutilin derivative containing thiazole-pyridine benzyl quaternary ammonium salt side chain and preparation method and use thereof” (SHAANXI UNIVERSITY OF SCIENCE AND TECHNOLOGY, priority 2022, dated 2025)
In brackets after ≈: the same amount, converted by molar mass.

Legend:
Format in all cases: cell-based
[1] = test system: Mycoplasma hyopneumoniae standard strain J strain (Mhp-J; NCTC 10110); assay: Anti-mycoplasma activity assay, MIC; details: Mesomycoplasma hyopneumoniae, NCTC10110
Experimental: (§1) The minimum inhibitory concentration of the pleuromutilin derivative containing thiazole-pyridine benzyl quaternary ammonium salt side chain against different mycoplasmas was tested with tiamulin as (purchased from Shanghai Yuanye Bio-Technology Co., Ltd) a positive control using a microbroth dilution method, and the antibacterial effect of the compound against different mycoplasmas was evaluated.
(§2) Experimental strains include Mycoplasma hyopneumoniae standard strain J strain (Mhp-J; NCTC 10110), Mycoplasma hyopneumoniae clinical isolate LH strain (Mhp-LH), Mycoplasma hyorhini standard strain BTS-7 strain (Mhr-BTS-7; NCTC 10130), Mycoplasma gallisepticum R strain (MG-R) and Mycoplasma synoviae WVU1853 strain (MS-WVU1853; NCTC 10124) (purchased from National Collection of Type Cultures, United Kingdom).
(§3) The specific operation steps are as follows: • (1) preparation of KM2 medium: 38.9 g of KM2 medium (purchased from Guangdong Huankai Microbial Sci. & Tech. Co., Ltd.) was weighed, added to 800 mL of distilled water, boiled and dissolved, and autoclaved at 115° C. for 20 min for later use. • (2) preparation of bacterial liquid stock: 0.5 mL of each of Mycoplasma hyopneumoniae (Mhp), Mycoplasma hyorhina (Mhr), Mycoplasma gallisepticum (MG) and Mycoplasma synoviae (MS) was taken and transferred to 4.5 mL of KM2 liquid medium, and when the colour of the medium turned yellow, each of the bacteria was sub-packaged at 0.5 mL per tube, and stored as the bacterial liquid at −70° C. • (3) determination of bacterial liquid titre (colour change unit, CCU): 96-well plate method was used to measure the bacterial liquid titre. The preserved bacterial liquid stock was taken from −70° C., melt and equilibrated to room temperature. 0.18 mL of KM2 medium was added to each well of the middle 4 rows of the 96-well plate (that is, 4 parallels), 0.02 mL of the bacterial liquid stock was taken and added to the wells of the first column, respectively, and subjected to 10-fold dilution until 10^−11. A negative control containing only KM2 medium was set (column 12). The plate was sealed and put into an incubator at 37° C., and the results were observed day by day. The highest dilution at which the colour of the medium can change was the CCU/mL of the strain. • (4) determination of MIC: the minimum inhibitory concentration of the compound against mycoplasmas was determined by a microbroth dilution method. Each drug to be tested was prepared as a stock solution with a concentration of 2560 μg/mL, and each drug stock solution was 2-fold diluted with KM2 liquid medium, and the test concentration range was 0.015-128 μg/mL (large concentration gradient) and 0.000004-0.06 μg/mL (small concentration gradient). An appropriate amount of seed bacterial liquid was taken and diluted to 10^4 CCU/mL serially according to its titre. Drugs of various dilutions were added sequentially to the 96-well plate, and then an equal amount of diluted bacterial liquid was added. 200 μL of diluted mycoplasma liquid was set as a positive control, 200 μL of KM2 liquid culture medium was set as a negative control, and a solvent control group (10 μL of drug solvent+190 μL of mycoplasma liquid) was also set. Three parallels were set for each experiment. After all the culture plates were sealed, they were allowed to culture at 37° C. and observed daily, and the final MIC values were recorded. (See FIG. 22 for the MIC determination results of the representative compound 7 against 5 mycoplasma strains)

[2] = test system: Mycoplasma synoviae WVU1853 strain (MS-WVU1853; NCTC 10124); assay: Anti-mycoplasma activity assay, MIC; details: Mycoplasmopsis synoviae, NCTC10124
Experimental: as §1, §2, §3

[3] = test system: Mycoplasma hyopneumoniae clinical isolate LH strain (Mhp-LH); assay: Anti-mycoplasma activity assay, MIC; details: Mesomycoplasma hyopneumoniae
Experimental: as §1, §2, §3

[4] = test system: Mycoplasma gallisepticum R strain (MG-R); assay: Anti-mycoplasma activity assay, MIC; details: Mycoplasmoides gallisepticum
Experimental: as §1, §2, §3

[5] = test system: Mycoplasma hyorhini standard strain BTS-7 strain (Mhr-BTS-7; NCTC 10130); assay: Anti-mycoplasma activity assay, MIC; details: NCTC10130
Experimental: as §1, §2, §3

[6] = test system: Staphylococcus aureus ATCC 25923; assay: MIC, microbroth dilution, standard strains; details: ATCC25923, ATCC 25923, read-out: Minimum inhibitory concentration
Experimental: (§4) The minimum inhibitory concentration (MIC) of the pleuromutilin derivative containing thiazole-pyridine benzyl quaternary ammonium salt side chain was tested with moxifloxacin as a positive control (purchased from Shanghai Macklin Biochemical Technology Co., Ltd.) using a microbroth dilution method.
(§5) Standard strains include gram-positive bacteria: Staphylococcus epidermidis ATCC 12228, Staphylococcus aureus ATCC 29213, ATCC 25923 and methicillin-resistant Staphylococcus aureus ATCC 33591; gram-negative bacteria: Salmonella ATCC 14028, Acinetobacter baumannii ATCC 19606, Escherichia coli ATCC 25922 and CMCC 44103, all the strains were purchased from the American Type Culture Collection.

[7] = test system: Escherichia coli ATCC 25922; assay: MIC, microbroth dilution, standard strains; details: ATCC25922, ATCC 25922, read-out: Minimum inhibitory concentration
Experimental: as §4, §5

[8] = test system: Staphylococcus aureus ATCC 29213; assay: MIC, microbroth dilution, standard strains; details: ATCC29213, ATCC 29213, read-out: Minimum inhibitory concentration
Experimental: as §4, §5

Salmonella ATCC 14028 = assay: MIC, microbroth dilution, standard strains; details: ATCC14028, ATCC 14028, read-out: Minimum inhibitory concentration
Experimental: as §4, §5

[9] = test system: Acinetobacter baumannii ATCC 19606; assay: MIC, microbroth dilution, standard strains; details: ATCC19606, ATCC 19606, read-out: Minimum inhibitory concentration
Experimental: as §4, §5

[10] = test system: Escherichia coli CMCC 44103; assay: MIC, microbroth dilution, standard strains; details: CMCC44103, CMCC 44103, read-out: Minimum inhibitory concentration
Experimental: as §4, §5

[11] = test system: methicillin-resistant Staphylococcus aureus ATCC 33591; assay: MIC, microbroth dilution, standard strains; details: ATCC33591, ATCC 33591, read-out: Minimum inhibitory concentration
Experimental: as §4, §5

[12] = test system: Staphylococcus epidermidis ATCC 12228; assay: MIC, microbroth dilution, standard strains; details: ATCC12228, ATCC 12228, read-out: Minimum inhibitory concentration
Experimental: as §4, §5

MIC [1]: 0.03 µg/mL (≈ 0.0608 µM)
MIC [2]: 2 µg/mL (≈ 4.05 µM)
MIC [3]: 0.015 µg/mL (≈ 0.0304 µM)
MIC [4]: 0.125 µg/mL (≈ 0.253 µM)
MIC [5]: 0.03 µg/mL (≈ 0.0608 µM)
MIC [6]: 64 µg/mL (≈ 130 µM)
MIC [7]: 128 µg/mL (≈ 259 µM)
MIC [8]: > 128 µg/mL
MIC (Salmonella ATCC 14028): 128 µg/mL (≈ 259 µM)
MIC [9]: 64 µg/mL (≈ 130 µM)
MIC [10]: 64 µg/mL (≈ 130 µM)
MIC [11]: 128 µg/mL (≈ 259 µM)
MIC [12]: 16 µg/mL (≈ 32.4 µM)
Compound: C=C[C@]1(C)C[C@@H](OC(=O)CSCCN(CC)CC)[C@]2(C)[C@H](C)CC[C@]3(CCC(=O)[C@H]32)[C@@H](C)[C@@H]1O [Tiamulin, tiamulin, reference compound]
